Experiment [1] deals with T1, porcine pancreatic elastase (PPE) (Sus scrofa, UniProt P00772).
T1 construct: purchased Sigma
In words: Specificity assay, porcine pancreatic elastase. The class given is biochemical. The note with it: 2 h enzyme-inhibitor pre-incubation; read-out: PPE activity in the specificity assays (IC50). As to the method: The specificities of compounds of the present disclosure were determined against a variety of serine proteases: human neutrophil elastase (HNE), porcine pancreatic elastase (PPE) and human pancreatic chymotrypsin and one cysteine protease: human liver cathepsin B. In all cases a 96-well plate format protocol using calorimetric p-nitroaniline (pNA) substrate specific for each enzyme was used as described previously (PCT Patent Application No. WO 00/09543) with some modifications to the serine protease assays. All enzymes were purchased from Sigma while the substrates were from Bachem.
Each assay included a 2 h enzyme-inhibitor pre-incubation at room temperature followed by addition of substrate and hydrolysis to 30% conversion as measured on a Spectramax Pro microplate reader. Compound concentrations varied from 100 to 0.4 μM depending on their potency. […]
The percentage of inhibition was calculated using the formula: [1−((UVinh−UVblank)/(UVctl−UVblank))]×100 […]

The target of experiment [2] is T2, HCV NS3/4A protease complex, J4L6S strain (Hepatitis C virus genotype 1b, UniProt O92972, C1454S/C1711G).
T2 construct: DNA encoding the recombinant HCV NS3/4A protease complex (amino acids 1027 to 1711) for these strains; inferred from pET21b vector and Ni-NTA purification; made in house; host or cells: Escherichia coli BL21 (DE3), pET21b
T2 sequence (O92972 1027-1711 C1454S/C1711G, one chain of several): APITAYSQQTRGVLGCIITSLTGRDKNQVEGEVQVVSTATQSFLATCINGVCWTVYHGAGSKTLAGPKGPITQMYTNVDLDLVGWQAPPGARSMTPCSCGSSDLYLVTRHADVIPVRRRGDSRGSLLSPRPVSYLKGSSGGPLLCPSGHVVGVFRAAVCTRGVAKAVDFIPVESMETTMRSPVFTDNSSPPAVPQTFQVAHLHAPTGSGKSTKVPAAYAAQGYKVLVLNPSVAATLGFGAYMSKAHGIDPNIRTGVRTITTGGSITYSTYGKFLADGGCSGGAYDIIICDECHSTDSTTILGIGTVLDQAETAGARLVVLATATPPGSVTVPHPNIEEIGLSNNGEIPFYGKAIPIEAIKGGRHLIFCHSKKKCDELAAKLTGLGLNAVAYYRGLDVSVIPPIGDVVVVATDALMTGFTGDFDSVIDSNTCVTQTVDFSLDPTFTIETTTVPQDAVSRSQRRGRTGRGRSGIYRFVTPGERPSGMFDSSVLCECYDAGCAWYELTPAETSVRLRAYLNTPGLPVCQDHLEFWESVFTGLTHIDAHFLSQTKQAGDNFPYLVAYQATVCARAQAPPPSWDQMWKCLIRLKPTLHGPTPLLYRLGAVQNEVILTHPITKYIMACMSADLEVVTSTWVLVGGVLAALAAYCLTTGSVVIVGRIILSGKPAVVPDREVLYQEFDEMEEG
The experiment in a line: FRET peptide assay to monitor HCV NS3/4A proteolytic activity (J4L6S strain). The experiment is classed as biochemical, HCV genotype 1b. The note with it: read-out: IC50 against NS3/4A J4L6S strain. An excerpt:
HCV NS3 protease complexes, derived from the BMS strain, H77 strain or J4L6S strain, were generated, as described below. These purified recombinant proteins were generated for use in a homogeneous assay (see below) to provide an indication of how effective compounds of the present disclosure would be in inhibiting HCV NS3 proteolytic activity.
The H77 and J4L6S strains were used for production of recombinant NS3/4A protease complexes. DNA encoding the recombinant HCV NS3/4A protease complex (amino acids 1027 to 1711) for these strains were manipulated as described by P. Gallinari et al. (see Gallinari P, Paolini C, Brennan D, Nardi C, Steinkuhler C, De Francesco R. Biochemistry. 38(17):5620-32, (1999)). Briefly, a three-lysine solubilizing tail was added at the 3′-end of the NS4A coding region. The cysteine in the P1 position of the NS4A-NS4B cleavage site (amino acid 1711) was changed to a glycine to avoid the proteolytic cleavage of the lysine tag. Furthermore, a cysteine to serine mutation was introduced by PCR at amino acid position 1454 to prevent the autolytic cleavage in the NS3 helicase domain. […]

T1 sequence (P00772 27-266): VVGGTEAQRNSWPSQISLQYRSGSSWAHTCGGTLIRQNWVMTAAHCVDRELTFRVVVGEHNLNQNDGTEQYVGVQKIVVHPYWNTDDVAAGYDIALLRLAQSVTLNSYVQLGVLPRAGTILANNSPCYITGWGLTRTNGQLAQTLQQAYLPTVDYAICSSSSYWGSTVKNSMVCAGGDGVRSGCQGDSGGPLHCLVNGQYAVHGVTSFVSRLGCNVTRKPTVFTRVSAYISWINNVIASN

On to `C=C[C@@H]1C[C@]1(NC(=O)[C@@H]1C[C@@](O)(c2ccc(-c3ccccc3)cc2)CN1C(=O)[C@@H](NC(=O)OC(C)(C)C)C(C)(C)C)C(=O)NS(=O)(=O)C1CC1` [Compound 3], for which the IC50 in experiment [1] was > 100000 nM; in experiment [2], 0.9 nM.
